Laboratory results taken from US20060205749A1, “Remedy and/or preventive for lung diseases” (priority 2003, published 2006).

What was measured:
[1] = tested on: neutrophils in BALF, lipopolysaccharide (LPS)-induced pulmonary injury model; experiment: Inhibitory effect on increase of neutrophils in LPS-induced pulmonary injury model; type: in vivo; conditions: male BALB/c mice, 0.1 mg/body intratracheally together with LPS, BAL 6 hours after administration
Experimental: Physiological saline containing 25% Alevaire (registered trademark, Azwell Inc., Osaka) which is an inhalant for respiratory organs (administration solvent), or administration solvent dissolving 300 ng/mL of LPS (manufactured by Sigma-Aldrich, Mo., USA) were administered intratracheally to 9-week-old male BALB/c mice (Charles River Japan, Kanagawa) in an amount of 0.1 mL respectively. Then bronchoalveolar lavages (BALS) were performed 6 hours after the intratracheal administration (These administration groups were referred to as a “solvent administration group” and an “LPS administration group”, respectively). […]
The recovered bronchoalveolar lavage fluids (BALFS) were centrifuged at 570×g for 10 minutes at 4° C., followed by removal of supernatants to obtain pellets. […] The total numbers of leukocytes were counted with an automatic blood cell counter Celltac α (Nihon Kohden Corporation, Tokyo). […] Then, the numbers of cells were counted under a microscope (400×).
The number of cells was counted up to 300 in total while macrophages, neutrophils and lymphocytes were distinguished. Then, the ratio of each cell was calculated (equation 1). The number of neutrophils was calculated from the ratio of neutrophils and the total number of leukocytes (equation 2). The inhibition ratio of the increase in number of neutrophils by the administration of Compound (I) was calculated by equation 3. […]

[2] = tested on: neutrophils in BALF, mainstream of cigarette smoke induced pulmonary injury model; experiment: Inhibitory effect on increase of neutrophils in mainstream of cigarette smoke induced pulmonary injury model; type: in vivo; conditions: male CD rats, 0.3 mg/body orally 10 to 12 hours before exposure to mainstream of cigarette smoke, BAL after the exposure for 6 hours
Experimental: Compound (I) was suspended to the concentration of 0.6 mg/mL in a physiological saline containing 25% Alevaire (registered trademark, Azwell, Osaka), which is an inhalant for respiratory organs, (administration solvent). The suspension was used for the test. The suspension is referred to as a “suspension for the administration of Compound (I)”.
First, 0.5 mL of the administration solvent or the suspension for the administration of Compound (I) per kilogram of body weight was administered orally to male CD rats aged 6 to 7 weeks (Charles River Japan, Kanagawa). After 10 to 12 hours, the rats were systemically exposed to mainstream of cigarette smoke (Hi-Lite, Japan Tobacco Inc., Tokyo) using a smoking exposure instrument (M•I•P•S, Osaka). The exposure to the mainstream of cigarette smoke for 5 minutes and then exposure to air for 10 minutes were successively performed by repeating them eight times.
A group subjected to the administration of the administration solvent and exposure to air instead of mainstream of cigarette smoke is referred to as a “solvent administration group”. […]
After the exposure for 6 hours, BALs were performed with Hanks' solution [Hanks' Balanced Salt Solution (Invitrogen Corporation, CA, USA)] […] All of the BALFs were recovered and subjected to treatment as in Test example 1, and then the numbers of neutrophils were measured. […]

Structure (SMILES): COc1ccc(C(=O)Cc2c(Cl)cncc2Cl)c2c1OC1(CCCC1)O2 [Compound (I), 7-[2-(3,5-dichloro-4-pyridyl)-1-oxoethyl]-4-methoxy-spiro[1,3-benzodioxol-2,1′-cyclopentane]]
- Number of neutrophils ([1]; mean ± standard error): 0.72 ± 0.22 ×10^5 cells/BALF
- Inhibition ratio of increase in number of neutrophils ([1]; equation 3): 47%
- Inhibition ratio of increase in number of neutrophil [2]: 81%
- Number of neutrophils ([2]; mean ± standard error): 0.34 ± 0.13 ×10^5 cells/BALF
